{"source": "paper PMC4990177", "about": "“ABCB1 Overexpression Is a Key Initiator of Resistance to Tyrosine Kinase Inhibitors in CML Cell Lines” (PLoS ONE, 2016)", "key": {"K562-Dox cells [1]": {"tested_on": "K562-Dox cells", "test": "Cell viability assay, Annexin V/7-AAD, 72 h, K562-Dox cells", "description": "(§1) Cells were washed and resuspended in fresh culture media before culture in 24-well plates (Thermo Fisher Scientific, Waltham, MA, USA) in the presence of TKI at a density of 2×10^5 cells/mL. Plates were seeded with 1 mL of cell suspension in triplicate, placed in sterilised containers and incubated for 72 h before cell viability determination with 7-aminoactinomycin D (7-AAD; Invitrogen Life Technologies, Carlsbad, CA, USA) and Phycoerythrin (PE)-conjugated Annexin V antibody (BD Biosciences, Franklin Lakes, NJ, USA). Flow cytometric analysis was conducted with an FC500 flow cytometer (Beckman Coulter, Miami, FL, USA) and FCS Express 4 software (De Novo Software, Los Angeles, CA, USA).\nError bars represent SEM."}, "K562 cells [2]": {"tested_on": "K562 cells", "test": "Cell viability assay, Annexin V/7-AAD, 72 h, K562 cells", "description": "as §1\nError bars represent SEM."}, "K562 cells [3]": {"tested_on": "K562 cells", "test": "% live cells during nilotinib dose escalation, K562 resistance intermediates", "assay_type": "cell-based"}, "K562-Dox cells [4]": {"tested_on": "K562-Dox cells", "test": "% live cells during nilotinib dose escalation, K562-Dox resistance intermediates", "assay_type": "cell-based"}, "LYN mRNA": {"tested_on": "LYN mRNA", "test": "LYN mRNA expression by RQ-PCR in nilotinib resistant K562 cells", "assay_type": "cell-based", "settings": "K562 #6 NIL cells and later intermediates, duration of nilotinib escalation"}}}
{"smiles": "Cc1nc(Nc2ncc(C(=O)Nc3c(C)cccc3Cl)s2)cc(N2CCN(CCO)CC2)n1", "note": "[dasatinib]", "values": [{"measurement": "survival (% live cells)", "setting": "K562-Dox cells [1]; K562-Dox #5 NIL cells, 100 nM dasatinib", "result": 60, "unit": "%"}, {"measurement": "survival (% live cells)", "setting": "K562-Dox cells [1]; K562-Dox control cells, 100 nM dasatinib", "result": 5, "unit": "%"}, {"measurement": "survival (% live cells)", "setting": "K562 cells [2]; K562 #6 NIL cells, 500 nM dasatinib", "result": 74, "unit": "%"}, {"measurement": "survival (% live cells)", "setting": "K562 cells [2]; K562 #10 NIL cells, 500 nM dasatinib", "result": 74, "unit": "%"}, {"measurement": "survival (% live cells)", "setting": "K562 cells [2]; K562 control cells, 500 nM dasatinib", "result": 21, "unit": "%"}]}
{"smiles": "Cc1ccc(NC(=O)c2ccc(CN3CCN(C)CC3)cc2)cc1Nc1nccc(-c2cccnc2)n1", "note": "[imatinib]", "values": [{"measurement": "survival (% live cells)", "setting": "K562-Dox cells [1]; K562-Dox #5 NIL cells, 5 μM imatinib", "result": 79, "unit": "%"}, {"measurement": "survival (% live cells)", "setting": "K562-Dox cells [1]; K562-Dox control cells, 5 μM imatinib", "result": 31, "unit": "%"}, {"measurement": "survival (% live cells)", "setting": "K562 cells [2]; K562 #6 NIL cells, 5 μM imatinib", "result": 92, "unit": "%"}, {"measurement": "survival (% live cells)", "setting": "K562 cells [2]; K562 #10 NIL cells, 5 μM imatinib", "result": 89, "unit": "%"}, {"measurement": "survival (% live cells)", "setting": "K562 cells [2]; K562 control cells, 5 μM imatinib", "result": 29, "unit": "%"}]}
{"smiles": "Cc1cn(-c2cc(NC(=O)c3ccc(C)c(Nc4nccc(-c5cccnc5)n4)c3)cc(C(F)(F)F)c2)cn1", "note": "[nilotinib]", "values": [{"measurement": "% Live Cells", "setting": "K562 cells [3]; K562 intermediate #1, cultured in 15 nM NIL, 10 days in culture", "result": 95.0, "unit": "%"}, {"measurement": "% Live Cells", "setting": "K562 cells [3]; K562 intermediate #2, cultured in 25 nM NIL, 11 days in culture", "result": 99.1, "unit": "%"}, {"measurement": "% Live Cells", "setting": "K562 cells [3]; K562 intermediate #3, cultured in 50 nM NIL, 10 days in culture", "result": 96.7, "unit": "%"}, {"measurement": "% Live Cells", "setting": "K562 cells [3]; K562 intermediate #4, cultured in 75 nM NIL, 14 days in culture", "result": 93.7, "unit": "%"}, {"measurement": "% Live Cells", "setting": "K562 cells [3]; K562 intermediate #5, cultured in 100 nM NIL, 12 days in culture", "result": 94.6, "unit": "%"}, {"measurement": "% Live Cells", "setting": "K562 cells [3]; K562 intermediate #6, cultured in 125 nM NIL, 28 days in culture (prolonged exposure)", "result": "~ 80%"}, {"measurement": "% Live Cells", "setting": "K562 cells [3]; K562 intermediate #6, cultured in 125 nM NIL, 28 days in culture (prolonged exposure), listed as NIL", "result": 83.6, "unit": "%"}, {"measurement": "% Live Cells", "setting": "K562 cells [3]; K562 intermediate #7, cultured in 140 nM NIL, 17 days in culture", "result": 87.4, "unit": "%"}, {"measurement": "% Live Cells", "setting": "K562 cells [3]; K562 intermediate #8, cultured in 300 nM NIL, 12 days in culture", "result": 93.3, "unit": "%"}, {"measurement": "% Live Cells", "setting": "K562 cells [3]; K562 intermediate #9, cultured in 400 nM NIL, 14 days in culture", "result": 90.8, "unit": "%"}, {"measurement": "% Live Cells", "setting": "K562 cells [3]; K562 intermediate #10, cultured in 2 μM NIL, continuous culture", "result": 94.1, "unit": "%"}, {"measurement": "% Live Cells", "setting": "K562-Dox cells [4]; K562-Dox intermediate #1, cultured in 15 nM NIL, 11 days in culture", "result": 99.6, "unit": "%"}, {"measurement": "% Live Cells", "setting": "K562-Dox cells [4]; K562-Dox intermediate #2, cultured in 30 nM NIL, 10 days in culture", "result": 96.9, "unit": "%"}, {"measurement": "% Live Cells", "setting": "K562-Dox cells [4]; K562-Dox intermediate #3, cultured in 60 nM NIL, 11 days in culture", "result": 98.5, "unit": "%"}, {"measurement": "% Live Cells", "setting": "K562-Dox cells [4]; K562-Dox intermediate #4, cultured in 100nM NIL, 12 days in culture", "result": 91.3, "unit": "%"}, {"measurement": "% Live Cells", "setting": "K562-Dox cells [4]; K562-Dox intermediate #5, cultured in 125 nM NIL, 81 days in culture", "result": 73.6, "unit": "%"}, {"measurement": "% Live Cells", "setting": "K562-Dox cells [4]; K562-Dox intermediate #6, cultured in 200 nM NIL, 16 days in culture", "result": 76.6, "unit": "%"}, {"measurement": "% Live Cells", "setting": "K562-Dox cells [4]; K562-Dox intermediate #7, cultured in 1 μM NIL, 19 days in culture", "result": 75.8, "unit": "%"}, {"measurement": "% Live Cells", "setting": "K562-Dox cells [4]; K562-Dox intermediate #8, cultured in 2 μM NIL, continuous culture", "result": 90.7, "unit": "%"}, {"measurement": "LYN mRNA increase compared with control cells", "setting": "LYN mRNA", "result": "15–18 fold"}, {"measurement": "survival (% live cells)", "setting": "K562-Dox cells [1]; K562-Dox #5 NIL cells, 1000 nM nilotinib", "result": 74, "unit": "%"}, {"measurement": "survival (% live cells)", "setting": "K562-Dox cells [1]; K562-Dox control cells, 1000 nM nilotinib", "result": 8, "unit": "%"}, {"measurement": "survival (% live cells)", "setting": "K562 cells [2]; K562 #6 NIL cells, 1000 nM nilotinib", "result": 87, "unit": "%"}, {"measurement": "survival (% live cells)", "setting": "K562 cells [2]; K562 #10 NIL cells, 1000 nM nilotinib", "result": 85, "unit": "%"}, {"measurement": "survival (% live cells)", "setting": "K562 cells [2]; K562 control cells, 1000 nM nilotinib", "result": 19, "unit": "%"}]}
